This is an account of results in ChEMBL document CHEMBL5712884, “S-Adenosyl-L-methionine-competitive inhibitors of the histone methyltransferase EZH2 induce autophagy and enhance drug sensitivity in cancer cells” (Anticancer Drugs, 2015).

Assay [1] concerns MDA-MB-231. Briefly: […] in human MDA-MB-231 cells assessed as induction of LC3-II accumulation at 1 umol/L for 48 hrs by Western blot analysis. The following applies: dose 1.0 µmol/L. It counts as functional, cell-based. On the technique in general: Immunoblotting shows a protein as a band on a membrane.
In assay [2] the test system is MDA-MB-231. Briefly: Induction of autophagy in human MDA-MB-231 cells assessed as induction of LC3-II accumulation at 10 umol/L for 48 hrs by Western blot analysis. Conditions: dose 10.0 µmol/L.
The test system of assay [3] is MDA-MB-231. As to the kind of experiment: […] in human MDA-MB-231 cells assessed as induction of LC3-II accumulation at 2 umol/L for 48 hrs by Western blot analysis. Conditions: dose 2.0 µmol/L. It counts as functional, cell-based.

SMILES strings stand for the structures. Active and inactive are the calls of the source. No cut-off for these calls is given here.

Turning to `CC(=O)O[C@H]1C(=O)[C@@]2(C)[C@H]([C@H](OC(=O)c3ccccc3)[C@]3(O)C[C@H](OC(=O)[C@H](O)[C@@H](NC(=O)c4ccccc4)c4ccccc4)C(C)=C1C3(C)C)[C@]1(OC(C)=O)CO[C@@H]1C[C@@H]2O`, in the assay on MDA-MB-231 [1], the result was Active. As to `COc1ccc2cc3[n+](cc2c1OC)CCc1cc2c(cc1-3)OCO2`, the result in the assay with MDA-MB-231 [2] was Active. On the same count and under the same terms, next, `CCCc1cc(C)[nH]c(=O)c1CNC(=O)c1cc(-c2ccc(N3CCN(C(C)C)CC3)nc2)cc2c1cnn2C(C)C`: “Active”. Regarding `O=C(CCCCCCC(=O)Nc1ccccc1)NO`, in the assay with MDA-MB-231 [3], the outcome was Active.
